The source of these data is patent US20260256134A1, “NanoEmulsion Composite Mixture of Essential Oils with Biodegradable Polymers and Co-Surfactants for Antimicrobial Activities and Enhanced Thermal Stability and Antioxidant Activities” (The American University in Cairo, priority 2022, published 2026).

The conditions of series [1]: orally administered to rats; cited from earlier work.
The next series deals with Geotricum candiaum. As to the kind of experiment: Inhibition zone method, antimicrobial activity. It is filed as cell-based, Geotricum candidum. An excerpt: (§1) Inhibition zone method was followed in order to test the antimicrobial efficiency of the selected nanoemulsion composite mixture samples against 6 chosen strains of gram-positive bacterial strains, 6 strains of gram-negative bacterial strains 6 strains of fungi as shown in the following list;
(§2) The following formulae were defined: • Formula 1 (F1): Green tea essential oil • Formula 2 (F2): Chitosan solution • Formula 3 (F3): benzalkonium solution • Formula 4 (F4): control (antimicrobial compound) • Formula 5 (F5): Green tea essential oil+Chitosan solution • Formula 6 (F6): The final formula of the nanoemulsion composite mixture
(§3) Inhibition zone method was followed in order to test the antimicrobial efficiency of the 6 selected nanoemulsion composite mixture samples against 6 chosen strains of gram-positive bacterial strains, 6 strains of gram-negative bacterial strains 6 strains of fungi.

In a further series the test system is Fusarium moniliform. The experiment in a line: Inhibition zone method, antimicrobial activity. The series is classed as cell-based.
Excerpt: as §1, §2, §3

The subject of another series is Salmonella Typhium. As to the kind of experiment: Inhibition zone method, antimicrobial activity. It is filed as cell-based.
Excerpt: as §1, §2, §3

The next series concerns Candida albicans. As to the kind of experiment: Inhibition zone method, antimicrobial activity. It is filed as cell-based.
Excerpt: as §1, §2, §3

Another series has as its system Micrococcus spp. As to the kind of experiment: Inhibition zone method, antimicrobial activity. It is filed as cell-based.
Excerpt: as §1, §2, §3

The subject of the next series is Aspergillus niger. The experiment in a line: Inhibition zone method, antimicrobial activity. It is filed as cell-based.
Excerpt: as §1, §2, §3

Another series concerns Staphylococcus aureus. The experiment in a line: Inhibition zone method, antimicrobial activity. It is filed as cell-based.
Excerpt: as §1, §2, §3

The next series deals with Bacillus subtilis. As to the kind of experiment: Inhibition zone method, antimicrobial activity. It is filed as cell-based.
Excerpt: as §1, §2, §3

The next series concerns Enterobacter colacae. As to the kind of experiment: Inhibition zone method, antimicrobial activity. It is filed as cell-based.
Excerpt: as §1, §2, §3

Another series has as its system Pseudomonas aeruginosa. As to the kind of experiment: Inhibition zone method, antimicrobial activity. It is filed as cell-based.
Excerpt: as §1, §2, §3

A further series has as its system Aspergillus fumigatus. The experiment in a line: Inhibition zone method, antimicrobial activity. It is filed as cell-based.
Excerpt: as §1, §2, §3

For the next series, the system named is Penicillium italicum. As to the kind of experiment: Inhibition zone method, antimicrobial activity. It is filed as cell-based.
Excerpt: as §1, §2, §3

The test system of another series is Klebsella pneumonia. The experiment in a line: Inhibition zone method, antimicrobial activity. The series is classed as cell-based.
Excerpt: as §1, §2, §3

The next series deals with Enterococcus faecalis. As to the kind of experiment: Inhibition zone method, antimicrobial activity. The series is classed as cell-based.
Excerpt: as §1, §2, §3

The subject of a further series is Streptococcus mutants. As to the kind of experiment: Inhibition zone method, antimicrobial activity. The series is classed as cell-based.
Excerpt: as §1, §2, §3

The next series deals with Eisherecia coli. The experiment in a line: Inhibition zone method, antimicrobial activity. The series is classed as cell-based.
Excerpt: as §1, §2, §3

In the next series the test system is Proteus vulgaris. The experiment in a line: Inhibition zone method, antimicrobial activity. The series is classed as cell-based.
Excerpt: as §1, §2, §3

For the next series, the system named is MRSA. As to the kind of experiment: Inhibition zone method, antimicrobial activity. It is filed as cell-based, Methicillin-resistant Staphylococcus aureus (MRSA).
Excerpt: as §1, §2, §3

Regarding Benzalkonium chloride [BAC], the “Lethal dose 50 (LD50)” value in series [1] was 234 to 525 mg/kg.
Regarding benzalkonium [Formula F3], the “Antimicrobial activity expressed as % inhibition” value is 89% in the series on Geotricum candiaum; 90% in the series with Fusarium moniliform; 41% with Salmonella Typhium; 50% in the series with Candida albicans; 64% with Micrococcus spp.; 70% in the series with Aspergillus niger. Besides, the “Antimicrobial activity expressed as % inhibition” value in the series on Staphylococcus aureus came to 50%; with Bacillus subtilis, 72%; in the series with Enterobacter colacae it was 94%; in the series on Pseudomonas aeruginosa, 66%; in the series on Aspergillus fumigatus, 52%; with Penicillium italicum it was 96%. Also, the “Antimicrobial activity expressed as % inhibition” value was 80% with Klebsella pneumonia; 60% with Enterococcus faecalis; 45% with Streptococcus mutants; 63% in the series on Eisherecia coli; 95% in the series on Proteus vulgaris; 90% in the series with MRSA.
